Patent US20080153792A1, “Drug Identification and Treatment Method” (priority 2006, published 2008)
Marks after values point to notes of the source that are not given here.

Tests used:
11β-HSD1 = assay: expression of 11β-HSD1 in osteoblasts of treated mice; assay type: in vivo, mouse; conditions: administration to mice
MG-63 cells = assay: reversal of glucocorticoid effects in MG-63 osteosarcoma cells; assay type: cell-based, human; conditions: 1 nM compound; 7 hours; 30 nM dexamethasone
[1] = system: osteoblasts and osteocytes in murine vertebral bone; assay: osteoblast and osteocyte apoptosis in ovariectomized mice (TUNEL); assay type: in vivo, mouse; conditions: ovariectomized Swiss Webster mice
Source text: The degree of apoptosis of osteoblasts and osteocytes in murine vertebral bone as a function of estrogen deficiency was examined. Swiss Webster mice (four months old) were ovariectomized. Twenty-eight days later, the animals were sacrificed, vertebrae were isolated, fixed and embedded, and then undecalcified in methacrylate.

androgen receptor = androgen receptor (Homo sapiens, UniProt P10275); assay: interaction with androgen receptor
[2] = system: DBA/1 mice, passive collagen-induced arthritis; assay: passive collagen-induced arthritis (anti-type II collagen antibodies); assay type: in vivo, mouse; conditions: 40 mg/kg/day oral gavage for 14 days
Source text: The capacity of formula 1 compounds to affect the course of arthritis in a passive collagen induced arthritis model of arthritis was examined essentially as previously described (E. Simelyte et al., Arthritis & Rheumatism, 52(6):1876-1884, 2005; Z. Han et al. Arthritis & Rheumatism 46(3):818-823 2002; H. Miyahara et. Clin. Immunol. Immunopathol., 69(1):69-76 1993). In this protocol, passive collagen-induced arthritis was induced in DBA/1 mice by administering anti-type II collagen antibodies, which induced an immune response against joint tissue in the animals. […] The severity of arthritis was assessed using a semiquantitative clinical scoring system. Groups of 8 animals per group were treated with 17α-ethynylandrost-5-ene-3β,7β,17β-triol at 40 mg/kg/day for 14 days or vehicle for 14 days by oral gavage. The vehicle was 30% cyclodextrin-sulfobutylether in water and the drug solution was vehicle with drug at 20 mg/mL.
The animals were examined by measuring ankle thickness and arthritis score (4-point/paw) with a higher score indicating a more severe arthritis. The experiment was terminated after about 14 days, and histology and gene expression measurements were performed. […] A semi-quantitative scoring system was used to access synovial inflammation, extraarticular inflammation, erosion and proteogylcan loss. […]

db/db C57BL/Ks mice = assay: glucose lowering in diabetic db/db mice; assay type: in vivo, mouse
Procedure: Glucose lowering and amelioration of insulin resistance. Glucose lowering effects and amelioration of insulin resistance was assessed in the diabetic db/db mouse model of human diabetes and insulin resistance. In these studies, db/db C57BL/Ks mice of approximately 8 to 10 weeks of age were divided into groups of 10 each and then treated with a vehicle control (no drug) or 17α-ethynylandrost-5-ene-3β,7β,17β-triol by oral gavage. The compound was administered twice a day at 20 mg/kg/day (10 mg/kg dose administered twice per day), 40 mg/kg/day (20 mg/kg dose administered twice per day) or 80 mg/kg/day (40 mg/kg dose administered twice per day) for up to 28 days. Blood glucose levels were monitored twice a week during the dosing period, using a minute amount of blood (nick tail bleeds) to measure the concentration of glucose by glucometer strips. At specific times during the dosing period (day 14 and day 28), an oral glucose tolerance test (OGTT) was also performed by administering a standard oral dose of 1 g/kg glucose (approximately 40 mg in a […]) and then the fluctuation of blood glucose levels was monitored quickly thereafter after at 15, 30, 60 and 120 minutes after the glucose dose. […] Blood glucose approached 380 mg/dL in the vehicle control group and was <230 mg/dL after at least 10 days of dosing in the drug treated group.
A treatment protocol similar to that described in example 15 was performed with db/db mice that were younger than the animals described in example 15. The animals (n=8 to 10 per group) were treated with 17α-ethynylandrost-5-ene-3β,7β,17β-triol or vehicle by oral gavage twice per day at 40 mg/kg/day (20 mg/kg dose given twice per day) and 80 mg/kg/day (40 mg/kg dose given twice per day). At the start of dosing, the animals were 6 weeks of age, before the onset of elevated glucose levels or hyperglycemia. Dosing with vehicle or drug was maintained for 32 days to determine the effect of the treatments on the onset and rate of progression of hyperglycemia in the animals. In the control group, the onset of hyperglycemia was observed after 25 days of dosing and it continued to worsen, i.e., blood glucose levels rose from normal to frank hyperglycemia, through the end of the 32 day dosing period.

[3] = system: estrogen receptor-s or estrogen receptor-s; assay: interaction with estrogen receptors
[4] = metabolic stability in liver microsomes: rat; conditions: 30 min
Procedure: Metabolic stability. The metabolic stability of selected compounds was examined in vitro using microsomes obtained from liver tissue according to the following protocol.
The protocol was performed as follows. (1) Prepared 0.5 mM compound in acetonitrile/water 35:65. […] (2) Set up samples as follows. […] Tubes for each compound was follows: 1-0′ 2-0′ 3-0′ 4-0′* 5-0′* 6-5 μM 7-1 μM 8-30′ 9-30′ 10-30′ where * designated denatured microsome negative control reaction tubes. For additional compounds numbering was started at 11, 21, 31, etc. (3) Added 315 μL PBS (pH 7.3-7.5) to each tube. Added 10 μL of the appropriate test article solution to each tube. (4) The internal standard/acetonitrile solution. (5) The NADPH regenerating system (NRS) was 125 μL per tube. To PBS added 1.7 mg/ml NADP, 7.8 mg/ml glucose-6-phosphate, 6 units/mL glucose-6-phosphate dehydrogenase. Fresh NRS for each experiment was kept on ice until use. (6) Each reaction used 125 μL of NRS in each tube. (7) Removed liver microsome preparation from −80° C. freezer and thawed in a room temperature water bath. The microsomal preparation was at a concentration of 20 mg/ml. […] (13) The methyl-t-butyl ether was transferred from each tube to a fresh tube and the solvent was evaporated ether under nitrogen and the precipitate was then resuspended in 100 μL acetonitrile/water 35:65 and analyzed by LCMS.

[5] = system: CD1 male mice, carrageenan-λ induced pleurisy; assay: carrageenan-λ induced lung (pleural cavity) inflammation in mice; assay type: in vivo, mouse; conditions: 1 mg and 0.1 mg by oral gavage

Chain of androgen receptor (P10275 whole entry, species assumed): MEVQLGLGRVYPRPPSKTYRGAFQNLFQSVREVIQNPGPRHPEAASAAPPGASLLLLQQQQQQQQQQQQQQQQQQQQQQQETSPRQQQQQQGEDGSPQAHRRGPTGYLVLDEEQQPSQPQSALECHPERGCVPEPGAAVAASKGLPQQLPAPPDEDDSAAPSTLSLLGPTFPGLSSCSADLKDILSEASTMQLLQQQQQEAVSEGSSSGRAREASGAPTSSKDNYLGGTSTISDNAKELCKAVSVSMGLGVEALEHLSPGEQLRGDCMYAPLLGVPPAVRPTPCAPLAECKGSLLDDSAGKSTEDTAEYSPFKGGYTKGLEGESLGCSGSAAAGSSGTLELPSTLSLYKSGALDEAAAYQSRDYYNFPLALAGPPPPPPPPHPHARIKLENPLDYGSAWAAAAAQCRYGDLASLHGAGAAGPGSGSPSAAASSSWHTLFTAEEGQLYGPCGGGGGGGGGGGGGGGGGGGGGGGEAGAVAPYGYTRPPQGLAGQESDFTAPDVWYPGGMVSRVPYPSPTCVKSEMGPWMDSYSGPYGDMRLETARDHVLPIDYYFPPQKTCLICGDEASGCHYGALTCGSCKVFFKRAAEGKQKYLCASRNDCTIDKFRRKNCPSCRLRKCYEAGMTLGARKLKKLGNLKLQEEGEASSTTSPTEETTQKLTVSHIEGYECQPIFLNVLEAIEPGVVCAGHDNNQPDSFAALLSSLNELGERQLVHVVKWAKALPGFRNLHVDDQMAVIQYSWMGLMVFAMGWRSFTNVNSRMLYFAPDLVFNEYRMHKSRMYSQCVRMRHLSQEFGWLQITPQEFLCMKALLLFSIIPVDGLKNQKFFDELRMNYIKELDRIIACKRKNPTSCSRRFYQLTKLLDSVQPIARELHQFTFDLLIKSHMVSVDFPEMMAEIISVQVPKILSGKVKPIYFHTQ

C#C[C@]1(O)CC[C@H]2[C@@H]3[C@@H](O)C=C4C[C@@H](O)CC[C@]4(C)[C@H]3CC[C@@]21C [17α-ethynylandrost-5-ene-3β,7β,17β-triol]
decrease of expression of 11β-HSD1 in osteoblasts (11β-HSD1): about 50%
reversal of the decrease in osteoprotegerin synthesis (MG-63 cells): completely reversed
osteoblast and osteocyte apoptosis [1]: reduce apoptosis
interaction with androgen receptor (androgen receptor): do not interact
maximum clinical score ([2]; at day 7): 5.1
clinical score at day 14 ([2]; end of the protocol): 4.1
peak glycemic excursion in OGTT (db/db C57BL/Ks mice; 80 mg/kg b.i.d. for 28 days, 30-min post-oral glucose, vehicle approximately 400 mg/dL): < 200 mg/dL
progression into the hyperglycemic state (db/db C57BL/Ks mice; 6 week old male db/db mice, 40 mg/kg): completely blocked progression
basal blood glucose hyperglycemic levels (db/db C57BL/Ks mice; 8 week old male db/db mice, 40 mg/kg dose group, twice-a-day, apparent after 10 days): markedly suppressed
blood glucose (db/db C57BL/Ks mice; after at least 10 days of dosing, vehicle approached 380 mg/dL): < 230 mg/dL
levels of glucose by the end of the 32 day dosing period (db/db C57BL/Ks mice; db/db mice 6 weeks of age at start, 40 mg/kg/day and 80 mg/kg/day oral, twice per day): did not rise above normal levels
decrease in hyperglycemic blood glucose levels (db/db C57BL/Ks mice; db/db mice 8 to 10 weeks of age, oral gavage twice a day): approximately 40%
glucose intolerance in OGTTs compared to vehicle (db/db C57BL/Ks mice; treated db/db animals): significant amelioration of glucose intolerance
interaction with estrogen receptor-s or estrogen receptor-s [3]: do not interact
parent remaining, rat microsome instead of mouse preparation [4]: 86%* (30 min)
anti-inflammation activity versus vehicle controls [5]: statistically significant anti-inflammation activity
